Laboratory results from the supplement of paper PMC5844555.

Key:
Test in all cases: 3' UTR reporter interaction score (median-centred robust z-score of log2 firefly/Renilla activity); higher = less repression of the 3' UTR reporter
Settings in all cases: HEK293T; 48 h
FBXW7 = system: FBXW7
Method in brief: (§1)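 Firefly and Renilla luciferase activities were read 48 h post-transfection in HEK293T cells (10,000/well, 96-well plates). The cells had received 100 ng firefly luc2P reporter bearing the gene's 3' UTR, 20 ng Renilla pRL-TK control and 2.5 pmol miRNA mimic via DharmaFECT Duo. The interaction score, where more negative means interaction, is a per-plate robust z-score (median, median absolute deviation) of the log firefly/Renilla ratio, median-centred per miRNA and averaged over at least two independent screens.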

MYC = system: MYC
Method in brief: as §1

MYCN = system: MYCN
Method in brief: as §1

PHF6 = system: PHF6
Method in brief: as §1

MYT1L = system: MYT1L
Method in brief: as §1

PHOX2B = system: PHOX2B
Method in brief: as §1

RB1 = system: RB1
Method in brief: as §1

BRCA2 = system: BRCA2
Method in brief: as §1

MYB = system: MYB
Method in brief: as §1

EZH2 = system: EZH2
Method in brief: as §1

ZEB2 = system: ZEB2
Method in brief: as §1

TP53 = system: TP53
Method in brief: as §1

HRAS = system: HRAS
Method in brief: as §1

NOTCH1 = system: NOTCH1
Method in brief: as §1

Sequence	3' UTR reporter interaction score (FBXW7)	3' UTR reporter interaction score (MYC)	3' UTR reporter interaction score (MYCN)	3' UTR reporter interaction score (PHF6)	3' UTR reporter interaction score (MYT1L)	3' UTR reporter interaction score (PHOX2B)	3' UTR reporter interaction score (RB1)	3' UTR reporter interaction score (BRCA2)	3' UTR reporter interaction score (MYB)	3' UTR reporter interaction score (EZH2)	3' UTR reporter interaction score (ZEB2)	3' UTR reporter interaction score (TP53)	3' UTR reporter interaction score (HRAS)	3' UTR reporter interaction score (NOTCH1)
AAAGCGCUUCCCUUUGCUGGA	0.199	-0.245	-0.601	0.797	0.0314	0.212	-0.977	-0.221	-0.491	0.396	0.684	-1.12	-0.256	0.538
AAAGCGCUUCUCUUUAGAGGA	0.112	-0.0856	-0.629	-0.164	-0.414	0.331	-0.785	-0.521	-0.0819	-0.591	0.196	-0.0242	0.681	0.581
AAAGUAGCUGUACCAUUUGC	0.57	-0.314	0.676	-0.00285	0.719	-0.926	-0.735	0.0379	1.14	-0.677	1.39	0.1	-1.6	1.58
AAAGUGCAUCCUUUUAGAGGUUU	0.961	-0.372	0.904	-0.0516	-1.16	0.434	-0.148	-0.233	-1.97	-0.589	0.526	0.429	-0.233	1.67
AAAGUGCAUCCUUUUAGAGUGUUAC	0.956	0.046	1.43	-0.315	-1.2	-0.251	0.0975	-0.464	-1.8	-0.596	0.599	1.22	0.648	2.14
AAAGUGCAUCUUUUUAGAGGAU	0.857	0.685	1.77	-0.0249	-0.436	0.606	-0.176	-0.243	-2.04	-0.581	-0.325	1.24	0.493	0.996
AAAGUGCCUCCUUUUAGAGUGU	0.988	0.329	1.27	1.02	0.764	-1.07	-0.21	-0.0588	-0.416	-0.239	0.00481	-0.0121	0.107	0.0165
AAAGUGCUGCGACAUUUGAGCGU	0.296	0.745	0.612	1.58	-0.68	0.221	1.06	0.603	-1.18	-1.36	-0.121	-1.1	0.79	1.03
AAAGUGCUUCCCUUUGGACUGU	1.67	-0.227	-0.799	1.36	-1.48	0.0276	1.36	0.671	-1.07	-0.72	-0.113	0.0148	0.194	1.13
AAAGUGCUUCCUUUUAGAGGG	0.755	0.194	-0.401	0.188	-0.373	1.35	0.0746	-0.12	-0.541	-1.28	0.554	0.0995	0.261	1.06
